{"source": "patent US11504387B2", "about": "“Bioconversion of oleuropein” (SOCIETE DES PRODUITS NESTLE S.A., priority 2017, dated 2022)", "origin": "cited, not measured here", "key": {"[1]": {"details": "compared to caffeic acid, oleuropein and hydroxytyrosol"}, "[2]": {"details": "in vivo"}, "[3]": {"details": "upper gastrointestinal tract and small intestine"}, "[4]": {"details": "compared with hydroxytyrosol"}}}
{"molecule": "CC=C1C(O)OC=C(C(=O)OC)C1CC(=O)OCCc1ccc(O)c(O)c1", "note": "(stereo not shown) [oleuropein aglycone, 3,4-dihydroxyphenylethanol-elenolic acid]", "values": [{"measurement": "antioxidant activity", "setting": "[1]", "result": "comparable to that of caffeic acid, oleuropein and hydroxytyrosol"}, {"measurement": "clearance from the plasma", "setting": "[2]", "result": "slower clearance from the plasma compared with hydroxytyrosol and oleuropein"}]}
{"molecule": "C/C=C1/[C@H](O[C@@H]2O[C@H](CO)[C@@H](O)[C@H](O)[C@H]2O)OC=C(C(=O)OC)[C@H]1CC(=O)OCCc1ccc(O)c(O)c1", "note": "[oleuropein]", "values": [{"measurement": "resistance to degradation", "setting": "[3]", "result": "resists degradation in the upper gastrointestinal tract and the small intestine"}]}
{"molecule": "hydroxytyrosol acetate", "values": [{"measurement": "solubility in the lipophilic phases", "setting": "[4]", "result": "more soluble in the lipophilic phases than hydroxytyrosol"}]}
